# US20260327214A1, “1,3,4-OXADIAZOLE DERIVATIVE COMPOUNDS AS HISTONE DEACETYLASE 6 INHIBITOR, AND USES THEREOF” (CHONG KUN DANG PHARMACEUTICAL CORP., priority 2022, published 2026)
# pIC50: −log10 of the molar value.
# Assays:
# human recombinant HDAC1 = biological target: T1, human recombinant HDAC1 (Homo sapiens, UniProt Q13547); experiment: HDAC1 enzyme activity inhibition test (HDAC Fluorometric Drug Discovery Kit); type: biochemical; conditions: 30° C., 60 minutes, 10 μM substrate
# T1 construct: purchased Enzo Life Science BML-SE456
# T1 sequence (Q13547 whole entry): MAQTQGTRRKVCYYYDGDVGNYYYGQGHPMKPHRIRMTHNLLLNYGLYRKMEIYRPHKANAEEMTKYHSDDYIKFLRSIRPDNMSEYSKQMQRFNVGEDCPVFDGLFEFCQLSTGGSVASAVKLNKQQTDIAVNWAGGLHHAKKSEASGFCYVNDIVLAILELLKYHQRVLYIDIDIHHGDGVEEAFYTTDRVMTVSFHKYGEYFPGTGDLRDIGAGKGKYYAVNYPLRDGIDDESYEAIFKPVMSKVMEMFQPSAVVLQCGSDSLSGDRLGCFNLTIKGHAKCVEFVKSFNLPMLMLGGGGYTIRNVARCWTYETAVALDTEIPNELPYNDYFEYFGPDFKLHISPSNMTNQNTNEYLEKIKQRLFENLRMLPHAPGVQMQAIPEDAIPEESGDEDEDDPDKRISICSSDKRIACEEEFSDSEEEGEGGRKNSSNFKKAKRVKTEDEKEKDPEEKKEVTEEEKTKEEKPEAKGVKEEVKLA
# How it was run: (§1)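 Recombinant human HDAC1 or HDAC6 (0.3 μg) reacted with 10 μM Fluor de Lys SIRT1 substrate and 5-fold diluted compound for 60 min at 30 °C. Developer II added 30 min; fluorescence read at Ex 360/Em 460 and IC50 calculated.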
# human recombinant HDAC6 = biological target: T2, human recombinant HDAC6 (Homo sapiens, UniProt Q9UBN7); experiment: HDAC6 enzyme activity inhibition test (HDAC Fluorometric Drug Discovery Kit); type: biochemical; conditions: for HDAC6 selectivity (fold): HDAC6 over HDAC1; for pIC50: human recombinant HDAC6, same protocol as HDAC1
# T2 construct: purchased Calbiochem 382180
# T2 sequence (Q9UBN7 1-1215): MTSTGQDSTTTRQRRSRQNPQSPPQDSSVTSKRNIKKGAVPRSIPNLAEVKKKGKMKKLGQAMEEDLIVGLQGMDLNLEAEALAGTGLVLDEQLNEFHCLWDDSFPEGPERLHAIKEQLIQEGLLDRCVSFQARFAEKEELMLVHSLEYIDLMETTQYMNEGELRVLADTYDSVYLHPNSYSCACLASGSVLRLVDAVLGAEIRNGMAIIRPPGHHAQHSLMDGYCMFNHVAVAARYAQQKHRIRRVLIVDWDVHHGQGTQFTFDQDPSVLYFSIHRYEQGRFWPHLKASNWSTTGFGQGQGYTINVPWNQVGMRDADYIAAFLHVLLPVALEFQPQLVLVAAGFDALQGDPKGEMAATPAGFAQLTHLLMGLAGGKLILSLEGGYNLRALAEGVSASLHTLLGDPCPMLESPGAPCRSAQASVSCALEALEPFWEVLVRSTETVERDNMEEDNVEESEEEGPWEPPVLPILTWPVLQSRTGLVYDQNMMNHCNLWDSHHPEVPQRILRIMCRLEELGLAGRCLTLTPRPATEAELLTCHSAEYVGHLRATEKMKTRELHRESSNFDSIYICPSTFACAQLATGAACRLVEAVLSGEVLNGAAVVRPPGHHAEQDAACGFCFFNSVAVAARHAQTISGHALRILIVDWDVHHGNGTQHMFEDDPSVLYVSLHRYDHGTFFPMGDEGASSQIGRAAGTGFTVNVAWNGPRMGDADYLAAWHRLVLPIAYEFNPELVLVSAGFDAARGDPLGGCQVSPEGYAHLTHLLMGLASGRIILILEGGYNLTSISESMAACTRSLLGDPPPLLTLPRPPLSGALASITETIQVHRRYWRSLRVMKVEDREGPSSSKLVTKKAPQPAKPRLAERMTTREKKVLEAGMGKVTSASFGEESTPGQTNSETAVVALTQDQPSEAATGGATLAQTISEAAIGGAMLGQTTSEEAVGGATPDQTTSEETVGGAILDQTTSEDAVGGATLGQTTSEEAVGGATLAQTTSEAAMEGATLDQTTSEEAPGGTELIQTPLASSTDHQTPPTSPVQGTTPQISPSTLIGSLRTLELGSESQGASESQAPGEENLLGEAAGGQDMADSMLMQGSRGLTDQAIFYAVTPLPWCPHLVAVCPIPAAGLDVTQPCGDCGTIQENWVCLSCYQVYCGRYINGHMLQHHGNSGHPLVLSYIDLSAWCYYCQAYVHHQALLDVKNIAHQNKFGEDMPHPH
# How it was run: as §1
pIC50 (human recombinant HDAC1),HDAC6 selectivity (fold) (human recombinant HDAC6),pIC50 (human recombinant HDAC6),Structure (SMILES)
< 4.30,1188,7.38,"FC(F)c1nnc(-c2ccc(Cn3nc(-c4cccc(N5CCN(C6CCCC6)CC5)n4)oc3=S)nc2)o1 [Compound 102, 5-[6-(4-cyclopentylpiperazin-1-yl)-2-pyridyl]-3-[[5-[5-(difluoromethyl)-1,3,4-oxadiazol-2-yl]-2-pyridyl]methyl]-1,3,4-oxadiazol-2-thione]"
< 4.30,1302,7.42,"CCN1CCN(c2cccc(-c3nn(Cc4ncc(-c5nnc(C(F)F)o5)cc4F)c(=S)o3)n2)CC1 [Compound 103, 3-[[5-[5-(difluoromethyl)-1,3,4-oxadiazol-2-yl]-3-fluoro-2-pyridyl]methyl]-5-[6-(4-ethylpiperazin-1-yl)-2-pyridyl]-1,3,4-oxadiazol-2-thione]"
< 4.30,1163,7.37,"CC(C)N1CCN(c2cccc(-c3nn(Cc4ncc(-c5nnc(C(F)F)o5)cc4F)c(=S)o3)n2)CC1 [Compound 104, 3-[[5-[5-(difluoromethyl)-1,3,4-oxadiazol-2-yl]-3-fluoro-2-pyridyl]methyl]-5-[6-(4-isopropylpiperazin-1-yl)-2-pyridyl]-1,3,4-oxadiazol-2-thione]"
< 4.30,734,7.17,"CC(C)N1CCN(c2cc(-c3nn(Cc4ccc(-c5nnc(C(F)F)o5)cn4)c(=S)o3)ccn2)CC1 [Compound 105, 3-[[5-[5-(difluoromethyl)-1,3,4-oxadiazol-2-yl]-2-pyridyl]methyl]-5-[2-(4-isopropylpiperazin-1-yl)-4-pyridyl]-1,3,4-oxadiazol-2-thione]"
< 4.30,639,7.11,"FC(F)c1nnc(-c2ccc(Cn3nc(-c4ccnc(N5CCN(C6CCCC6)CC5)c4)oc3=S)nc2)o1 [Compound 106, 5-[2-(4-cyclopentylpiperazin-1-yl)-4-pyridyl]-3-[[5-[5-(difluoromethyl)-1,3,4-oxadiazol-2-yl]-2-pyridyl]methyl]-1,3,4-oxadiazol-2-thione]"
< 4.30,1163,7.37,"CN(C)Cc1ccc(-c2nn(Cc3ncc(-c4nnc(C(F)F)o4)cc3F)c(=S)o2)cc1 [Compound 107, 3-[[5-[5-(difluoromethyl)-1,3,4-oxadiazol-2-yl]-3-fluoro-2-pyridyl]methyl]-5-[4-[(dimethylamino)methyl]phenyl]-1,3,4-oxadiazol-2-thione]"
< 4.30,1475,7.47,"CNCc1ccc(-c2nn(Cc3ncc(-c4nnc(C(F)F)o4)cc3F)c(=S)o2)cc1 [Compound 108, 3-[[5-[5-(difluoromethyl)-1,3,4-oxadiazol-2-yl]-3-fluoro-2-pyridyl]methyl]-5-[4-(methylaminomethyl)phenyl]-1,3,4-oxadiazol-2-thione]"
< 4.30,1020,7.31,"CCN(CC)Cc1ccc(-c2nn(Cc3ncc(-c4nnc(C(F)F)o4)cc3F)c(=S)o2)cc1 [Compound 109, 5-[4-(diethylaminomethyl)phenyl]-3-[[5-[5-(difluoromethyl)-1,3,4-oxadiazol-2-yl]-3-fluoro-2-pyridyl]methyl]-1,3,4-oxadiazol-2-thione]"
< 4.30,919,7.26,"Fc1cc(-c2nnc(C(F)F)o2)cnc1Cn1nc(-c2ccc(CN3CC(F)C3)cc2)oc1=S [Compound 110, 3-[[5-[5-(difluoromethyl)-1,3,4-oxadiazol-2-yl]-3-fluoro-2-pyridyl]methyl]-5-[4-[(3-fluoroazetidine-1-yl)methyl]phenyl]-1,3,4-oxadiazol-2-thione]"
< 4.30,549,7.04,"CC1CCN(Cc2ccc(-c3nn(Cc4ncc(-c5nnc(C(F)F)o5)cc4F)c(=S)o3)cc2)CC1 [Compound 111, 3-[[5-[5-(difluoromethyl)-1,3,4-oxadiazol-2-yl]-3-fluoro-2-pyridyl]methyl]-5-[4-[(4-methyl-1-piperidyl)methyl]phenyl]-1,3,4-oxadiazol-2-thione]"
< 4.30,980,7.29,"Fc1cc(-c2nnc(C(F)F)o2)cnc1Cn1nc(-c2ccc(CN3CCCCC3)cc2)oc1=S [Compound 112, 3-[[5-[5-(difluoromethyl)-1,3,4-oxadiazol-2-yl]-3-fluoro-2-pyridyl]methyl]-5-[4-(1-piperidylmethyl)phenyl]-1,3,4-oxadiazol-2-thione]"
< 4.30,778,7.19,"Fc1cc(-c2nnc(C(F)F)o2)cnc1Cn1nc(-c2ccc(CN3CC[C@@H](F)C3)cc2)oc1=S [Compound 113, 3-[[5-[5-(difluoromethyl)-1,3,4-oxadiazol-2-yl]-3-fluoro-2-pyridyl]methyl]-5-[4-[[(3R)-3-fluoropyrrolidin-1-yl]methyl]phenyl]-1,3,4-oxadiazol-2-thione]"
< 4.30,824,7.22,"Fc1cc(-c2nnc(C(F)F)o2)cnc1Cn1nc(-c2ccc(CN3CC[C@H](F)C3)cc2)oc1=S [Compound 114, 3-[[5-[5-(difluoromethyl)-1,3,4-oxadiazol-2-yl]-3-fluoro-2-pyridyl]methyl]-5-[4-[[(3S)-3-fluoropyrrolidin-1-yl]methyl]phenyl]-1,3,4-oxadiazol-2-thione]"
< 4.30,483,6.99,"CN1CCC(c2cc(-c3nn(Cc4ccc(-c5nnc(C(F)F)o5)cn4)c(=S)o3)ccc2F)CC1 [Compound 115, 3-[[5-[5-(difluoromethyl)-1,3,4-oxadiazol-2-yl]-2-pyridyl]methyl]-5-[4-fluoro-3-(1-methyl-4-piperidyl)phenyl]-1,3,4-oxadiazol-2-thione]"
< 4.30,429,6.93,"CC(C)N1CCC(c2cc(-c3nn(Cc4ccc(-c5nnc(C(F)F)o5)cn4)c(=S)o3)ccc2F)CC1 [Compound 116, 3-[[5-[5-(difluoromethyl)-1,3,4-oxadiazol-2-yl]-2-pyridyl]methyl]-5-[4-fluoro-3-(1-isopropyl-4-piperidyl)phenyl]-1,3,4-oxadiazol-2-thione]"
< 4.30,675,7.13,"CN(C)Cc1cccc(-c2nn(Cc3ncc(-c4nnc(C(F)F)o4)cc3F)c(=S)o2)c1 [Compound 117, 3-[[5-[5-(difluoromethyl)-1,3,4-oxadiazol-2-yl]-3-fluoro-2-pyridyl]methyl]-5-[3-[(dimethylamino)methyl]phenyl]-1,3,4-oxadiazol-2-thione]"
< 4.30,742,7.17,"Fc1cc(-c2nnc(C(F)F)o2)cnc1Cn1nc(-c2cccc(CN3CCC3)c2)oc1=S [Compound 118, 5-[3-(azetidine-1-ylmethyl)phenyl]-3-[[5-[5-(difluoromethyl)-1,3,4-oxadiazol-2-yl]-3-fluoro-2-pyridyl]methyl]-1,3,4-oxadiazol-2-thione]"
< 4.30,590,7.07,"Fc1cc(-c2nnc(C(F)F)o2)cnc1Cn1nc(-c2cccc(CN3CCCCC3)c2)oc1=S [Compound 119, 3-[[5-[5-(difluoromethyl)-1,3,4-oxadiazol-2-yl]-3-fluoro-2-pyridyl]methyl]-5-[3-(1-piperidylmethyl)phenyl]-1,3,4-oxadiazol-2-thione]"
< 4.30,630,7.10,"CCN(CC)Cc1cccc(-c2nn(Cc3ncc(-c4nnc(C(F)F)o4)cc3F)c(=S)o2)c1 [Compound 120, 5-[3-(diethylaminomethyl)phenyl]-3-[[5-[5-(difluoromethyl)-1,3,4-oxadiazol-2-yl]-3-fluoro-2-pyridyl]methyl]-1,3,4-oxadiazol-2-thione]"
